# Experiments:
# human GYS1 = human GYS1 (Homo sapiens (Human), UniProt P13807); experiment: GYS1 coupled enzyme assay (PK/LDH); type: biochemical; conditions: recombinant hGYS1/GN1 protein; geometric mean of at least 2 assay runs
# Source text: The GYS1 coupled enzyme assay is a kinetic biochemical assay that indirectly quantifies the rate of glycogen synthesis by coupling the conversion of GYS1 substrate UDP-glucose into UDP with downstream enzymatic reactions. UDP is released from UDP-glucose as glucose monomers are linked into the growing glycogen strand by GYS1. The coupled assay then proceeds with pyruvate kinase utilizing UDP and phospho (enol) pyruvate (PEP) to form pyruvate. Lactate dehydrogenase then converts pyruvate and NADH into lactate and NAD+. Oxidation of NADH to NAD+ can be measured continuously with a plate reader by quantifying the decrease in NADH absorbance at 340 nm over time.
# Compounds that inhibit the hGYS1 enzyme and, subsequently, the downstream conversion of NADH to NAD+, were tested using assay ready plates (black, clear bottom 384 well plates) in a final DMSO reaction volume of 2.5% DMSO. The Assay Buffer contained 50 mM Tris pH 7.5, 2 mM MgCl2, and 100 mM KCl. Fresh stocks of BSA at a final concentration of 0.02% and TCEP at 1 mM were added before splitting buffer into hGYS1 buffer and substrate buffer. To the hGYS1 buffer, rabbit liver glycogen was added at a final concentration of 0.2% glycogen. Glucose-6-Phosphate was added at 1 mM, recombinant hGYS1/GN1 protein was added at 50 nM to the substrate buffer, phosphoenolpyruvate (PEP) was added at 2 mM, UDP-Glucose was added at 0.8 mM, NADH) was added at 0.6 mM, and Pyruvate Kinase/Lactate Dehydrogenase was added at 20 units/mL. The reaction was initiated by mixing hGYS1 buffer and substrate buffer at a 1:1 ratio. Both buffers were plated using a liquid dispensing device with hGYS1 buffer plated first followed by the substrate buffer. Plates were spun briefly to eliminate air bubbles and are immediately read in continuous mode at an absorbance of 340 nm, for 10 time points in one-minute increments, for a total of 10 minutes. The slope from these 10 time points was normalized to the positive and negative control wells.
# (§1) Unless otherwise specified, IC50 values are reported as the geometric mean of at least 2 assay runs on separate days. Each run represents the average of a technical replicate, where each compound was assayed twice in the same plate.
# [1] = target: hGYS1 enzyme, glycogen synthesis in HeLa cells (Homo sapiens (Human), UniProt P13807); experiment: GYS1 cell based assay (glycogen synthesis in HeLa cells, Glucose-glo); conditions: starved HeLa cells, 24 h incubation; geometric mean of at least 2 assay runs; read-out: Cellular IC50
# Source text: The GYS1 cell based assay is a bioluminescent assay that quantifies the glucose resulting from glycogen digestion; the quantified glucose is an indirect measure of GYS1 glycogen synthesis. Newly synthesized glycogen is digested using Glucoamylase; the resulting glucose is quantified by using the Glucose-glo assay kit from Promega. Glucose-glo works by coupling glucose oxidation and NADH production with a bioluminescent system that is activated with NADH. Glucose is oxidized by Glucose dehydrogenase and the reaction reduces NAD+ to NADH; NADH activates Reductase which reduces a pro-luciferin Reductase Substrate to luciferin. Luciferin is detected in a luciferase reaction using Ultra-Glo rLuciferase and ATP, and the luminesce produced is proportional to the glucose in the sample. The luminescence is measured as a single point read in a plate reader.
# Compounds that inhibit the hGYS1 enzyme and, subsequently, the glycogen synthesis in cells, were tested using assay ready plates (white, clear bottom 384 well plates) in a final DMSO reaction volume of 1% DMSO. Compounds in the assay ready plates were mixed with media with no additives, except for 20 mM glucose prior to cell addition. HeLa cells were starved in media with no additives, except for 1× Glutamax for 24 h. Starved HeLa cells were plated, in a 1:1 ratio to the media in the assay ready plate and incubated for 24 h at 37° C. and 5% CO2. Cells were washed in 1×PBS buffer and lysed in lysis buffer containing 50% 1×PBS and 25% 0.3 N HCl of the final volume in the well or reaction volume; cells were incubated with lysis buffer for 10 minutes and quenched with the remaining 25% of the reaction volume that consisted of 450 mM Tris pH 8.0. Lysates were mixed in a 1:1 ratio with Glucoamylase in 100 mM Sodium Acetate buffer, pH 5.3; the mixture was incubated for 1 h at 37° C. The digested lysate was mixed in a 1:1 ratio with Glucose-glo detection mixture as per vendor recommendations (Luciferase detection buffer, Reductase, Reductase substrate, Glucose dehydrogenase, and NAD) in read-out plates (solid white 384-well plates) and incubated for 1 h at RT. The plates were read using a plate reader with luminescence capabilities. Each compound concentration Relative Luminescence Unit (RLU) was averaged and normalized to the average RLU of the positive and negative controls to obtain a percentage inhibition. The normalized data vs. concentration was plotted; to determine the half-maximal concentration (IC50), the Levenberg-Marquardt algorithm was used to fit a Hill equation to the dose response data.
# as §1, with “2 assay runs on separate days. […] Unless otherwise specified, IC50 values are reported as the geometric mean of at least two” for “2”
# hGYS1 enzyme, glycogen synthesis in HeLa cells, sequence (P13807 whole entry): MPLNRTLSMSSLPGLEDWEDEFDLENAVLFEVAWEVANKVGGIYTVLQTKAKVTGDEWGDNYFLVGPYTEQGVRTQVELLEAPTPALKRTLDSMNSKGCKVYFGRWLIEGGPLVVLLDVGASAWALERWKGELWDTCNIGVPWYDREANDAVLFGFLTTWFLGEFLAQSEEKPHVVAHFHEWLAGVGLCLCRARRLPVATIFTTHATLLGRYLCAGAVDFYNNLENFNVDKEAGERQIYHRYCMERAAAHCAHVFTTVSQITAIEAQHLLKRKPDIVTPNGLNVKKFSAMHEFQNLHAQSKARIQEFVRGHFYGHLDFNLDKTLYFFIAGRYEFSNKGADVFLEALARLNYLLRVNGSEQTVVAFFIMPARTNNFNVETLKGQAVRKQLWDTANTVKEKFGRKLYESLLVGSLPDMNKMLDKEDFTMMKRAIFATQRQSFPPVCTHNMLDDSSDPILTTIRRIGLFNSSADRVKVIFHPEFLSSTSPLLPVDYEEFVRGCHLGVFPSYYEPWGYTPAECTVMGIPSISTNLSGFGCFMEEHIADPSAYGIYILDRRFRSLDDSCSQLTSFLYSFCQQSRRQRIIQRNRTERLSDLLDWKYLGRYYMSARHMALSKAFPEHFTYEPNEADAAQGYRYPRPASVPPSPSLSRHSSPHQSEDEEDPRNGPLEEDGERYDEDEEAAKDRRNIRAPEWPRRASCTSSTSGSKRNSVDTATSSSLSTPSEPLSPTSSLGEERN
# human GYS1, sequence (P13807 whole entry): as above
# human GYS1, sequence (P46976 whole entry partner): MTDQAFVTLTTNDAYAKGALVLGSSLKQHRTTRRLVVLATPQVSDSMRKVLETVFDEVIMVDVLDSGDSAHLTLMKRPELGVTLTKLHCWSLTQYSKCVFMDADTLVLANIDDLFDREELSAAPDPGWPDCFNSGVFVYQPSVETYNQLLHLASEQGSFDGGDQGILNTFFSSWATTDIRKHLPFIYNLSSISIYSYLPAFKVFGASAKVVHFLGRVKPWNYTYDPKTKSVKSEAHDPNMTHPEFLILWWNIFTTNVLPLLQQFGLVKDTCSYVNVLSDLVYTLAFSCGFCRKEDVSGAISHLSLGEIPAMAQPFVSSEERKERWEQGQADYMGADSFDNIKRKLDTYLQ
IC50 (human GYS1),IC50 [1],SMILES
836 nM,> 100000 nM,"CC(C)c1ccc([C@@H](NC(=O)C2CC(O)CC2C(=O)O)c2ccccc2)cc1 (single isomer, unassigned) [Compound 16, (1S or 1R,2R or 2S,4R or 4S)-4-hydroxy-2-(((S)-(4-isopropylphenyl)(phenyl)methyl)carbamoyl)cyclopentane-1-carboxylic acid]"
1960 nM,> 100000 nM,"CC(C)c1ccc([C@@H](NC(=O)C2CC(O)CC2C(=O)O)c2ccccc2)cc1 (single isomer, unassigned) [Compound 21, (1S or 1R,2R or 2S,4S or 4R)-4-hydroxy-2-(((S)-(4-isopropylphenyl)(phenyl)methyl)carbamoyl)cyclopentane-1-carboxylic acid]"
1150 nM,24500 nM,"CC(C)c1ccc([C@@H](NC(=O)C2CC(F)CC2C(=O)O)c2ccccc2)cc1 (single isomer, unassigned) [Compound 25, (1S or 1R,2R or 2S,4R or 4S)-4-fluoro-2-(((S)-(4-isopropylphenyl)(phenyl)methyl)carbamoyl)cyclopentane-1-carboxylic acid]"
3130 nM,,"CC(C)c1ccc([C@@H](NC(=O)C2CCC(C(=O)O)C2)c2ccccc2)cc1 (single isomer, unassigned) [Compound 33, (1S or 1R,3R or 3S)-3-(((S)-(4-isopropylphenyl)(phenyl)methyl)carbamoyl)cyclopentane-1-carboxylic acid]"
2390 nM,,"CC1(C)CC2(CC([C@@H](NC(=O)C3CCCC3C(=O)O)c3ccccc3)C2)C1 (single isomer, unassigned) [Compound 35, (1S or 1R,2R or 2S)-2-(((R)-(6,6-dimethylspiro[3.3]heptan-2-yl)(phenyl)methyl)carbamoyl)cyclopentane-1-carboxylic acid]"
1440 nM,,"CC(C)c1ccc([C@@H](NC(=O)[C@@H]2CCC[C@@H]2C(=O)O)c2cccc(-c3ccnn3C)c2)nc1F [Compound 1, (1S,2R)-2-(((S)-(6-fluoro-5-isopropylpyridin-2-yl)(3-(1-methyl-1H-pyrazol-5-yl)phenyl)methyl)carbamoyl)cyclopentane-1-carboxylic acid]"
426 nM,,"CC(C)c1ccc([C@@H](NC(=O)[C@@H]2CCC[C@@H]2C(=O)O)c2cccc(-c3cnco3)c2)nc1F [Compound 2, (1S,2R)-2-(((S)-(6-fluoro-5-isopropylpyridin-2-yl)(3-(oxazol-5-yl)phenyl)methyl)carbamoyl)cyclopentane-1-carboxylic acid]"
630 nM,,"CC(C)c1ccc([C@@H](NC(=O)[C@@H]2CCC[C@@H]2C(=O)O)c2cccc(-c3ccno3)c2)nc1F [Compound 3, (1S,2R)-2-(((S)-(6-fluoro-5-isopropylpyridin-2-yl)(3-(isoxazol-5-yl)phenyl)methyl)carbamoyl)cyclopentane-1-carboxylic acid]"
178 nM,,"CC(C)c1ccc([C@@H](NC(=O)[C@@H]2CCC[C@@H]2C(=O)O)c2cccc(-c3ccn[nH]3)c2)nc1F [Compound 4, (1S,2R)-2-(((S)-(3-(1H-pyrazol-5-yl)phenyl)(6-fluoro-5-isopropylpyridin-2-yl)methyl)carbamoyl)cyclopentane-1-carboxylic acid]"
84 nM,,"CC(C)c1ccc([C@@H](NC(=O)[C@@H]2CCC[C@@H]2C(=O)O)c2ccc3cn[nH]c3c2)nc1F [Compound 5, (1S,2R)-2-(((S)-(6-fluoro-5-isopropylpyridin-2-yl)(1H-indazol-6-yl)methyl)carbamoyl)cyclopentane-1-carboxylic acid]"
272 nM,,"O=C(O)[C@H]1CCC[C@H]1C(=O)N[C@@H](c1ccccc1)c1ccc(C2CC2)c(F)n1 [Compound 6, (1S,2R)-2-(((S)-(5-cyclopropyl-6-fluoropyridin-2-yl)(phenyl)methyl)carbamoyl)cyclopentane-1-carboxylic acid]"
884 nM,> 10000 nM,"CC(C)c1ccc([C@@H](NC(=O)[C@@H]2CCC[C@@H]2C(=O)O)c2cccc3c2[nH]c(=O)n3C)cc1F [Compound 7, (1S,2R)-2-(((R)-(3-fluoro-4-isopropylphenyl)(1-methyl-2-oxo-2,3-dihydro-1H-benzo[d]imidazol-4-yl)methyl)carbamoyl)cyclopentane-1-carboxylic acid]"
879 nM,> 100000 nM,"CC(C)c1ccc([C@@H](NC(=O)[C@@H]2CCC[C@@H]2C(=O)O)c2cccc3[nH]c(=O)oc23)cc1 [Compound 9, (1S,2R)-2-(((R)-(4-isopropylphenyl)(2-oxo-2,3-dihydrobenzo[d]oxazol-7-yl)methyl)carbamoyl)cyclopentane-1-carboxylic acid]"
2930 nM,> 100000 nM,"CC(C)c1ccc([C@@H](NC(=O)[C@@H]2CCC[C@@H]2C(=O)O)c2cccc3oc(=O)[nH]c23)cc1 [Compound 10, (1S,2R)-2-(((R)-(4-isopropylphenyl)(2-oxo-2,3-dihydrobenzo[d]oxazol-4-yl)methyl)carbamoyl)cyclopentane-1-carboxylic acid]"
1730 nM,> 65800 nM,"O=C(O)[C@H]1CCC[C@H]1C(=O)N[C@@H](c1ccccc1)c1ccc(C2CC2)cn1 [Compound 12, (1S,2R)-2-(((S)-(5-cyclopropylpyridin-2-yl)(phenyl)methyl)carbamoyl)cyclopentane-1-carboxylic acid]"
2360 nM,> 68600 nM,"CC(C)c1ccc([C@@H](NC(=O)[C@@H]2CCC[C@@H]2C(=O)O)c2ccccc2NC(=O)C2CNC2)cc1 [Compound 13, (1S,2R)-2-(((R)-(2-(azetidine-3-carboxamido)phenyl)(4-isopropylphenyl)methyl)carbamoyl)cyclopentane-1-carboxylic acid]"
1010 nM,> 60800 nM,"CC1(c2ccc([C@@H](NC(=O)[C@@H]3CCC[C@@H]3C(=O)O)c3ccccc3)cc2)CC1 [Compound 14, (1S,2R)-2-(((S)-(4-(1-methylcyclopropyl)phenyl)(phenyl)methyl)carbamoyl)cyclopentane-1-carboxylic acid]"
1130 nM,,"O=C(O)[C@H]1CCC[C@H]1C(=O)N[C@@H](c1ccccc1)c1ccc(C2CC2)cc1 [Compound 38, (1S,2R)-2-(((S)-(4-cyclopropylphenyl)(phenyl)methyl)carbamoyl)cyclopentane-1-carboxylic acid]"

SMILES,IC50 (human GYS1),IC50 [1]
"CC(C)c1ccc([C@@H](NC(=O)C2CC(NC(=O)OC(C)(C)C)CC2C(=O)O)c2ccccc2)cc1 (single isomer, unassigned) [Compound 11, (1S or 1R,2R or 2S,4R or 4S)-4-((tert-butoxycarbonyl)amino)-2-(((S)-(4-isopropylphenyl)(phenyl)methyl)carbamoyl)cyclopentane-1-carboxylic acid]",1940 nM,> 100000 nM

# — US20260021085A1, “CYCLOALKYL CARBOXYLIC ACID DERIVATIVES AS INHIBITORS OF GLYCOGEN SYNTHASE 1 (GYS1) AND METHODS OF USE THEREOF” (Maze Therapeutics, Inc., priority 2022, published 2026)
